Experimental data: ChEMBL document CHEMBL5705887, “Distinct concentration-dependent effects of the polo-like kinase 1-specific inhibitor GSK461364A, including differential effect on apoptosis” (Cancer Res, 2009)
Active and inactive are the calls of the source. The calls are words filed in the database; no cut-off is given here.

Columns and labels:
[1] = system: SW480; assay: Antiproliferative activity against human SW480 cells assessed as growth inhibition incubated for 72 hrs by celltiter-glo assay; format: functional
[2] = system: COLO 205; assay: Antiproliferative activity against human COLO 205 cells assessed as viable cell signal at maximum growth inhibition incubated for 72 hrs by celltiter-glo assay relative to control; format: functional
[3] = system: A498; assay: Antiproliferative activity against human A498 cells assessed as of viable cell signal at minimum maximum cell growth incubated for 72 hrs by celltiter-glo assay relative to control; format: functional
[4] = system: DU-145; assay: Antiproliferative activity against human DU-145 cells assessed as growth inhibition incubated for 72 hrs by celltiter-glo assay; format: functional
[5] = system: Platelet-derived growth factor receptor alpha (Homo sapiens), P16234 [V561D]; assay: Inhibition of N-terminal his6-tagged recombinant human PDGFRA V561D mutant at 10 uM relative to control
Chain of Platelet-derived growth factor receptor alpha (Homo sapiens), P16234 [V561D] (P16234 whole entry V561D): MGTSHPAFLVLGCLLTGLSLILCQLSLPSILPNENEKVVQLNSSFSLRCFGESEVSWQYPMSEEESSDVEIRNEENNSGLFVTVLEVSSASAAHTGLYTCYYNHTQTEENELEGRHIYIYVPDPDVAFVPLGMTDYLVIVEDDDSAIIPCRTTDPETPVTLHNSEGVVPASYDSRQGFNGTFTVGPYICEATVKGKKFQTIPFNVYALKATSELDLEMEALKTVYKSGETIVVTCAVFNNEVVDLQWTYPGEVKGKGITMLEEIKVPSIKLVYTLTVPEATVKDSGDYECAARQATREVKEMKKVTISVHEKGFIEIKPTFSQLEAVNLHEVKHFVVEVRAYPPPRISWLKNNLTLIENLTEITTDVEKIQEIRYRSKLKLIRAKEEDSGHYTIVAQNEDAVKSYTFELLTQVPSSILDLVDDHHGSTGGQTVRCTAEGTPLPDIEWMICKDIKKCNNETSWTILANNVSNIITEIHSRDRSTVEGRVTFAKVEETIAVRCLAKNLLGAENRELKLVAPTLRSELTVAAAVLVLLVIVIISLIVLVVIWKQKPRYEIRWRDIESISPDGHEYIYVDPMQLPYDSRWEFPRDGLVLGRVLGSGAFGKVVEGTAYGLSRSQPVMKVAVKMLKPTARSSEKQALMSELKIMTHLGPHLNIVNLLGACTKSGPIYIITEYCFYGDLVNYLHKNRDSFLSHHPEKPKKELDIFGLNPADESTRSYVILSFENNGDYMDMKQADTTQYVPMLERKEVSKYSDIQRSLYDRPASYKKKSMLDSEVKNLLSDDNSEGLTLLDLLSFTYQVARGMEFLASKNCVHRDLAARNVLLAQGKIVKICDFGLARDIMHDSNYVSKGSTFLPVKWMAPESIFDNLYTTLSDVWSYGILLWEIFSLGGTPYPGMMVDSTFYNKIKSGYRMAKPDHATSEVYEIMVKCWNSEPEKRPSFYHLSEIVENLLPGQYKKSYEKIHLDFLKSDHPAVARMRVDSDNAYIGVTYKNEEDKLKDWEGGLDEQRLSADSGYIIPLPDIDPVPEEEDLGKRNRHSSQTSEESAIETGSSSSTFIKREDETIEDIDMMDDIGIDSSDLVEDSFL

[6] = system: LoVo; assay: Antiproliferative activity against human LoVo cells assessed as of viable cell signal at minimum maximum cell growth incubated for 72 hrs by celltiter-glo assay relative to control; format: functional
[7] = system: NCI-N87; assay: Antiproliferative activity against human NCI-N87 cells assessed as viable cell signal at maximum growth inhibition incubated for 72 hrs by celltiter-glo assay relative to control; format: functional
[8] = system: DLD-1; assay: Antiproliferative activity against human DLD-1 cells assessed as of viable cell signal at minimum maximum cell growth incubated for 72 hrs by celltiter-glo assay relative to control; format: functional
[9] = system: ZR-75-1; assay: Antiproliferative activity against human ZR-75-1 cells assessed as growth inhibition incubated for 72 hrs by celltiter-glo assay; format: functional
[10] = system: Calu-3; assay: Antiproliferative activity against human Calu-3 cells assessed as viable cell signal at maximum growth inhibition incubated for 72 hrs by celltiter-glo assay relative to control; format: functional
[11] = system: SK-MEL-28; assay: Antiproliferative activity against human SK-MEL-28 cells assessed as of viable cell signal at minimum maximum cell growth incubated for 72 hrs by celltiter-glo assay relative to control; format: functional
[12] = biological target: Vascular endothelial growth factor receptor 3 (Homo sapiens) (UniProt P35916); assay: Inhibition of N-terminal GST-tagged recombinant human FLT4 (800 to end residues) at 10 uM relative to control
Chain of Vascular endothelial growth factor receptor 3 (Homo sapiens) (P35916 whole entry): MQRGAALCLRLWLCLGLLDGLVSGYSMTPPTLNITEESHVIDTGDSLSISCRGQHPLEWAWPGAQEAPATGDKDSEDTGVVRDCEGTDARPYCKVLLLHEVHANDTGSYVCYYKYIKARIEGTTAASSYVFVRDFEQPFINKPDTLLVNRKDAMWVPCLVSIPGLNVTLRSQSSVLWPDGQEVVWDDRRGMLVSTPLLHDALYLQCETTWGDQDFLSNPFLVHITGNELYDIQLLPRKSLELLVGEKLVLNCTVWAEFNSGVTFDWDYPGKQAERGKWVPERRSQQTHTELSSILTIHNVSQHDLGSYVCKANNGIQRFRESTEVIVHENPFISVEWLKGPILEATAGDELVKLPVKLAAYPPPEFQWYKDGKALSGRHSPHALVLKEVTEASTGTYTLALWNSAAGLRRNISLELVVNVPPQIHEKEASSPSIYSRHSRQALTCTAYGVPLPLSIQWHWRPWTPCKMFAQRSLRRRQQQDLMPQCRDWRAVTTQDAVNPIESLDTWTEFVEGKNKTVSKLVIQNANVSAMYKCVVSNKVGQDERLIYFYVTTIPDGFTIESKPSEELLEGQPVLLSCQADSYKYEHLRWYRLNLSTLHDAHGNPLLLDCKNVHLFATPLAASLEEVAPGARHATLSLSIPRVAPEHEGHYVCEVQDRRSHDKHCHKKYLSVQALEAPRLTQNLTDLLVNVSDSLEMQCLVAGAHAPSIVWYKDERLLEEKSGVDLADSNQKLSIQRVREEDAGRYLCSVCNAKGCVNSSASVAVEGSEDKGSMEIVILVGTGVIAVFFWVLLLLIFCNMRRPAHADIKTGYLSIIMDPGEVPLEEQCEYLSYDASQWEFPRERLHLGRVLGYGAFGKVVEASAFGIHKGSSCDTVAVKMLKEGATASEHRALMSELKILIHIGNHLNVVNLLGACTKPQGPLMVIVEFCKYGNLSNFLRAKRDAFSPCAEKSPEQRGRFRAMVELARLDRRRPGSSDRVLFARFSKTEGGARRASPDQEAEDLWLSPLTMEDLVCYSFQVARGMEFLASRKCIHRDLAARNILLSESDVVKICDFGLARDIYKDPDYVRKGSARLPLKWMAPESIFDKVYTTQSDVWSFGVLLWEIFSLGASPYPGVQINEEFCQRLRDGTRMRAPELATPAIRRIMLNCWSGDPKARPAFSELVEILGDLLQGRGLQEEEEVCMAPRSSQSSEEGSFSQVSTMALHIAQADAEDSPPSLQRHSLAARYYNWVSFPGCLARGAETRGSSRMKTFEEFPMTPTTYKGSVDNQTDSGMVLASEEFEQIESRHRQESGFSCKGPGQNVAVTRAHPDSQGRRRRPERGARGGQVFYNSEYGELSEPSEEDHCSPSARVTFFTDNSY

[13] = system: HL-60; assay: Antiproliferative activity against human HL-60 cells assessed as growth inhibition incubated for 72 hrs by celltiter-glo assay; format: functional
[14] = system: SAOS-2; assay: Antiproliferative activity against human SAOS-2 cells assessed as growth inhibition incubated for 72 hrs by celltiter-glo assay; format: functional
[15] = system: A549; assay: Induction of mitotic arrest in human A549 cells assessed as disordered spindle formation at 20 nmol/L incubated for 16 hrs by alpha-tubulin/DAPI staining based confocal microscopic analysis; format: functional, cell-based
[16] = system: NCI-H727; assay: Antiproliferative activity against human NCI-H727 cells assessed as of viable cell signal at minimum maximum cell growth incubated for 72 hrs by celltiter-glo assay relative to control; format: functional
[17] = system: A704; assay: Antiproliferative activity against human A704 cells assessed as of viable cell signal at minimum maximum cell growth incubated for 72 hrs by celltiter-glo assay relative to control; format: functional
[18] = system: SK-BR-3; assay: Antiproliferative activity against human SK-BR-3 cells assessed as viable cell signal at maximum growth inhibition incubated for 72 hrs by celltiter-glo assay relative to control; format: functional
[19] = system: NCI-H1299; assay: Antiproliferative activity against human NCI-H1299 cells assessed as viable cell signal at maximum growth inhibition incubated for 72 hrs by celltiter-glo assay relative to control; format: functional
[20] = system: NCI-H1155; assay: Antiproliferative activity against human NCI-H1155 cells assessed as viable cell signal at maximum growth inhibition incubated for 72 hrs by celltiter-glo assay relative to control; format: functional
[21] = biological target: Calcium/calmodulin-dependent protein kinase type II subunit gamma (Homo sapiens) (UniProt Q13555); assay: Inhibition recombinant human CAMKII-gamma at 10 uM relative to control
Chain of Calcium/calmodulin-dependent protein kinase type II subunit gamma (Homo sapiens) (Q13555 whole entry): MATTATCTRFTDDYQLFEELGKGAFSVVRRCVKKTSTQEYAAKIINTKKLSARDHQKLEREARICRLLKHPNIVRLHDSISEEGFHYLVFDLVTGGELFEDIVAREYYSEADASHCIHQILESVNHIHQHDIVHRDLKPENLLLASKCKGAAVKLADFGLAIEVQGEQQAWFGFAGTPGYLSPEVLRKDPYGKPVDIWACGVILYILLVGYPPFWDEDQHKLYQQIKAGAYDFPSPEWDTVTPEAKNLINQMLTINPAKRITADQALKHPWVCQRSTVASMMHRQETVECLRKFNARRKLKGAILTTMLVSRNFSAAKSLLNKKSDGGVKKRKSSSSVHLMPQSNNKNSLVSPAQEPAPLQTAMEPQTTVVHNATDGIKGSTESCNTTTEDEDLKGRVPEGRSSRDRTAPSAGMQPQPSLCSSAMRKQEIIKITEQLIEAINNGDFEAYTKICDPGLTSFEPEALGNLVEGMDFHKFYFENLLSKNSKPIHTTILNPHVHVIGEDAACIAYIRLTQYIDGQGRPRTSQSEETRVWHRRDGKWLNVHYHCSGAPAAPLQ

[22] = system: NCI-H1299; assay: Antiproliferative activity against human NCI-H1299 cells assessed as growth inhibition incubated for 72 hrs by celltiter-glo assay; format: functional
[23] = biological target: Platelet-derived growth factor receptor alpha (Homo sapiens) (UniProt P16234); assay: Inhibition of N-terminal his6-tagged recombinant human PDGFRalpha (550 to end residues) expressed in baculovirus Sf21 insect cells at 10 uM relative to control
Chain of Platelet-derived growth factor receptor alpha (Homo sapiens) (P16234 whole entry): as the sequence (P16234 whole entry V561D) above, with D561V counted along it

[24] = system: BXPC-3; assay: Antiproliferative activity against human BXPC-3 cells assessed as viable cell signal at maximum growth inhibition incubated for 72 hrs by celltiter-glo assay relative to control; format: functional
[25] = system: COLO 205; assay: Antiproliferative activity against human COLO 205 cells assessed as growth inhibition incubated for 72 hrs by celltiter-glo assay; format: functional
[26] = system: ASPC1; assay: Antiproliferative activity against human ASPC1 cells assessed as viable cell signal at maximum growth inhibition incubated for 72 hrs by celltiter-glo assay relative to control; format: functional
[27] = system: A2780; assay: Antiproliferative activity against human A2780 cells assessed as of viable cell signal at minimum maximum cell growth incubated for 72 hrs by celltiter-glo assay relative to control; format: functional
[28] = system: A549; assay: Induction of mitotic arrest in human A549 cells assessed as disordered spindle formation at 313 nmol/L incubated for 16 hrs by alpha-tubulin/DAPI staining based confocal microscopic analysis; format: functional, cell-based
[29] = system: HCC1937; assay: Antiproliferative activity against human HCC1937 cells assessed as viable cell signal at maximum growth inhibition incubated for 72 hrs by celltiter-glo assay relative to control; format: functional
[30] = system: NCI-H358; assay: Antiproliferative activity against human NCI-H358 cells assessed as of viable cell signal at minimum maximum cell growth incubated for 72 hrs by celltiter-glo assay relative to control; format: functional
[31] = system: NCI-H522; assay: Antiproliferative activity against human NCI-H522 cells assessed as of viable cell signal at minimum maximum cell growth incubated for 72 hrs by celltiter-glo assay relative to control; format: functional
[32] = system: HCC1937; assay: Antiproliferative activity against human HCC1937 cells assessed as of viable cell signal at minimum maximum cell growth incubated for 72 hrs by celltiter-glo assay relative to control; format: functional
[33] = system: SK-MEL-2; assay: Antiproliferative activity against human SK-MEL-2 cells assessed as viable cell signal at maximum growth inhibition incubated for 72 hrs by celltiter-glo assay relative to control; format: functional
[34] = system: HT-29; assay: Induction of mitotic arrest in human HT-29 cells assessed as effect on pHH3 level at 10 to 250 nmol/L incubated for 19 hrs by ELISA analysis; format: functional, cell-based; conditions: dose 10-250 nmol/L
[35] = system: NCI-H157; assay: Antiproliferative activity against human NCI-H157 cells assessed as growth inhibition incubated for 72 hrs by celltiter-glo assay; format: functional
[36] = system: OVCAR-8; assay: Antiproliferative activity against human OVCAR-8 cells assessed as of viable cell signal at minimum maximum cell growth incubated for 72 hrs by celltiter-glo assay relative to control; format: functional
[37] = biological target: Serine/threonine-protein kinase BRSK2 (Homo sapiens) (UniProt Q8IWQ3); assay: Inhibition of full length N-terminal his6-tagged recombinant human BRSK2 expressed in baculovirus Sf21 cells at 10 uM relative to control
Chain of Serine/threonine-protein kinase BRSK2 (Homo sapiens) (Q8IWQ3 whole entry): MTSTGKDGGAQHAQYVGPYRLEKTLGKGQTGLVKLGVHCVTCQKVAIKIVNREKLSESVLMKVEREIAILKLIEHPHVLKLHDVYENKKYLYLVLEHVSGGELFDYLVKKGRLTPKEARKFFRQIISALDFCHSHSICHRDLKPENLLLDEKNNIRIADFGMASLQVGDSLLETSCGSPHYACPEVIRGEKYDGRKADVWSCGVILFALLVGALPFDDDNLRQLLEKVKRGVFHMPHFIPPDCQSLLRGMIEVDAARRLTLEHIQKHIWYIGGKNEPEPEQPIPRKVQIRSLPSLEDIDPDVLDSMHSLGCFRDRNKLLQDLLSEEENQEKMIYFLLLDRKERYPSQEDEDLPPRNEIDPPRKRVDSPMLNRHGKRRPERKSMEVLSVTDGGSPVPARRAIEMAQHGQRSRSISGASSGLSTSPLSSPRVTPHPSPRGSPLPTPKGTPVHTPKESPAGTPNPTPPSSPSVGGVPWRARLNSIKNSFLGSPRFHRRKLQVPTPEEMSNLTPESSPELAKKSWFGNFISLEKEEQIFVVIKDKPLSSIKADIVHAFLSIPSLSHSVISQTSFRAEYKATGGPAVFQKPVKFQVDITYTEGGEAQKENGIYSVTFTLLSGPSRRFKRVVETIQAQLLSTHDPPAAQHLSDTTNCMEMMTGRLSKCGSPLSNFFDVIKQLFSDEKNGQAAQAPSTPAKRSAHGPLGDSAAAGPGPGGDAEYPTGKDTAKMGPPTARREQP

[38] = system: T47D; assay: Antiproliferative activity against human T47D cells assessed as growth inhibition incubated for 72 hrs by celltiter-glo assay; format: functional
[39] = system: HeLa; assay: Antiproliferative activity against human HeLa cells assessed as growth inhibition incubated for 72 hrs by celltiter-glo assay; format: functional
[40] = system: ASPC1; assay: Antiproliferative activity against human ASPC1 cells assessed as growth inhibition incubated for 72 hrs by celltiter-glo assay; format: functional

Q: What does the source list for `C[C@@H](Oc1cc(-n2cnc3ccc(CN4CCN(C)CC4)cc32)sc1C(N)=O)c1ccccc1C(F)(F)F` [GSK-461364]?
A: GI50 [1]: 130 nM; Emax [2]: 616%; Emin [3]: 243.2%; GI50 [4]: 24.2 nM; inhibition [5]: 96%; Emin [6]: 23.4%; Emax [7]: 776%; Emin [8]: 441.3%; GI50 [9]: 46.5 nM; Emax [10]: 190%; Emin [11]: 199.6%; inhibition [12]: 87%; GI50 [13]: 17.5 nM; GI50 [14]: 14.2 nM; Activity [15]: Active; Emin [16]: 158.9%; Emin [17]: 3.2%; Emax [18]: 300%; Emax [19]: 495%; Emax [20]: 645%; inhibition [21]: 84%; GI50 [22]: 61.4 nM; inhibition [23]: 72%; Emax [24]: 278%; GI50 [25]: 14.2 nM; Emax [26]: 294%; Emin [27]: 68.5%; Activity [28]: Active; Emax [29]: 240%; Emin [30]: 150%; Emin [31]: 125%; Emin [32]: 100%; Emax [33]: 422%; Activity [34]: Active; GI50 [35]: 25.2 nM; Emin [36]: 46.5%; inhibition [37]: 79%; GI50 [38]: 9160 nM; GI50 [39]: 21.8 nM; GI50 [40]: 22.3 nM
